According to US20240025906A1 (NEURON23, INC., priority 2022, published 2024):
Where two headings read alike, the source gives them in different places. Each block holds one molecule with its values, some of them ahead of it.

Assays:
[1] = molecular target: T1, TYK2 JH2 (Homo sapiens, UniProt P29597); experiment: TYK2 JH2 binding assay (KINOMEscan KdELECT competitive binding); details: TYK2 JH2 domain
T1 construct: purchased DiscoverX (KINOMEscan KdELECT service); host or cells: E. coli BL21-derived (T7 phage display) or HEK-293
T1 sequence (P29597 589-875 limits assumed): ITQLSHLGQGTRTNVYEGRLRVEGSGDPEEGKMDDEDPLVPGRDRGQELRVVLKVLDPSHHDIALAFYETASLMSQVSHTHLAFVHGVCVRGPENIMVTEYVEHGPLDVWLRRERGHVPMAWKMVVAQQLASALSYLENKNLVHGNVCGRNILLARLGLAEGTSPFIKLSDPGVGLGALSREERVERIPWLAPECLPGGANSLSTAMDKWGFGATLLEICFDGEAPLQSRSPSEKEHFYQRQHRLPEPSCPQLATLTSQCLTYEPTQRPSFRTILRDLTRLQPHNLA
Summary of the method: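 JH2-domain fragment, expressed as T7 phage tag in BL21-derived E. coli or DNA-tagged from HEK-293, competed with test compound against bead-immobilized biotinylated ligand in binding buffer (0.9% DMSO). 1 h shaking at room temperature; bound kinase eluted with 0.5 μM free ligand and quantified by qPCR. Kd from 11-point 3-fold dilutions.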

[2] = system: JAK1/TYK2 pSTAT5 (Tyr694/699) in THP-1 cell line; experiment: IFNa-stimulated JAK1/TYK2 pSTAT5 (Tyr694/699) inhibition cellular assay, AlphaLISA; assay type: cell-based; details: Homo sapiens, THP-1 cells, AlphaLISA (Assay B)
Summary of the method: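 THP-1, 2e4 cells/well, HBSS; cpd 1 h 37 °C (10000–0.04 nM final, 6-fold, 8 pt); IFNa 100 ng/mL added, 30 min; lyse, freeze −80 °C; pSTAT5 AlphaLISA, 615 nm; 4PL IC50, bottom fixed 0, slope −1.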

[3] = KINOMEscan KdELECT (Assay A), read-out: Biochemical TYK2_DiscoverX_JH2_BND_Kd
[4] = IFNa-stimulated, read-out: Cellular_THP1_IFNa-pSTATS_TYK2
[5] = KINOMEscan KdELECT (Assay A), read-out: Biochemical TYK2_JH2_Kd
[6] = IFNa-stimulated, read-out: Cellular THP1_IFNa-pSTATS_IC50
[7] = DiscoverX KINOMEscan KdELECT (Assay A), read-out: Biochemical TYK2_DiscoverX_JH2_BND_Kd

SMILES: CNc1ncc(C#Cc2ccc3nc(C(F)F)n(C)c3c2)c2cc(NC(=O)[C@H]3C[C@H]3C)ncc12 [Example 775, (1S,2R)—N-(5-((2-(difluoromethyl)-1-methyl-1H-benzo[d]imidazol-6-yl)ethynyl)-8-(methylamino)-2,7-naphthyridin-3-yl)-2-methylcyclopropane-1-carboxamide]
Kd [1, 3]: ≤ 100 nM | IC50 [2, 4]: ≤ 500 nM

SMILES: CNc1ncc(-c2nc3cnc(C)cc3o2)c2cc(NC(=O)C3CC3)ncc12 [Example 928, N-(8-(methylamino)-5-(6-methyloxazolo[4,5-c]pyridin-2-yl)-2,7-naphthyridin-3-yl)cyclopropanecarboxamide]
Kd [1, 3]: ≤ 100 nM | IC50 [2, 4]: ≤ 500 nM

SMILES: C=C(c1ccc(N2CCOCC2)cc1)c1cnc(NC)c2cnc(NC(=O)C3CC3)cc12 [Example 793, N-(8-(methylamino)-5-(1-(4-morpholinophenyl)vinyl)-2,7-naphthyridin-3-yl)cyclopropanecarboxamide]
Kd [1, 3]: ≤ 100 nM | IC50 [2, 4]: > 500 nM

SMILES: CNc1ncc(-c2cccnc2)c2cc(NC(=O)C3CC3)ncc12 [Example 14, N-(8-(methylamino)-5-(pyridin-3-yl)-2,7-naphthyridin-3-yl)cyclopropanecarboxamide]
Kd [1, 5]: ≤ 100 nM | IC50 [2, 6]: > 500 nM

SMILES: CNc1ncc(-c2ccc(-c3ccccn3)cc2)c2cc(NC(=O)C3CC3)ncc12 [Example 171, N-(8-(methylamino)-5-(4-(pyridin-2-yl)phenyl)-2,7-naphthyridin-3-yl)cyclopropanecarboxamide]
Kd [1, 5]: ≤ 100 nM | IC50 [2, 6]: ≤ 500 nM

SMILES: CNc1ncc(-c2nc3cc(N4CCO[C@H](COC)C4)ccc3o2)c2cc(NC(=O)C3CC3)ncc12 (single isomer, unassigned) [Example 919]
Kd [1, 3]: ≤ 100 nM | IC50 [2, 4]: ≤ 500 nM

SMILES: CNc1ncc(-c2ccc(O)cc2)c2cc(NC(=O)C3CC3)ncc12 [Example 861, N-(5-(4-hydroxyphenyl)-8-(methylamino)-2,7-naphthyridin-3-yl)cyclopropanecarboxamide]
Kd [1, 3]: ≤ 100 nM | IC50 [2, 4]: ≤ 500 nM

SMILES: CNc1ncc(-c2nc3cc(N4CCOCC4)ccc3o2)c2cc(Nc3cc(C)n(C)n3)ncc12 [Example 426, N6-(1,5-dimethyl-1H-pyrazol-3-yl)-N^1-methyl-4-(5-morpholinobenzo[d]oxazol-2-yl)-2,7-naphthyridine-1,6-diamine]
Kd [1, 7]: ≤ 100 nM | IC50 [2, 4]: ≤ 500 nM

SMILES: CNc1ncc(-c2nc3cc(OC[C@@H](C)O)ccc3o2)c2cc(NC(=O)C3CC3)ncc12 [Example 239, (R)—N-(5-(5-(2-hydroxypropoxy)benzo[d]oxazol-2-yl)-8-(methylamino)-2,7-naphthyridin-3-yl)cyclopropanecarboxamide]
Kd [1, 7]: ≤ 100 nM | IC50 [2, 4]: ≤ 500 nM

SMILES: CNc1ncc(-c2nc3cc(N4CCOC(COC)C4)ccc3o2)c2cc(NC(=O)C3CC3)ncc12 (stereo not shown) [Example 918, N-(5-(5-(2-(methoxymethyl)morpholino)benzo[d]oxazol-2-yl)-8-(methylamino)-2,7-naphthyridin-3-yl)cyclopropanecarboxamide]
Kd [1, 3]: ≤ 100 nM | IC50 [2, 4]: ≤ 500 nM

SMILES: CCNc1ncc(-c2nc3ccc(N4CCOCC4)cn3n2)c2cc(NC(=O)[C@H]3C[C@H]3C)ncc12 [Example 579, (1S,2R)—N-(8-(ethylamino)-5-(6-morpholino-[1,2,4]triazolo[1,5-a]pyridin-2-yl)-2,7-naphthyridin-3-yl)-2-methylcyclopropane-1-carboxamide]
Kd [1, 7]: ≤ 100 nM | IC50 [2, 4]: ≤ 500 nM

SMILES: CNc1ncc(-c2ccc(Cn3ccc(=O)cc3)cc2)c2cc(NC(=O)C3CC3)ncc12 [Example 869, N-(8-(methylamino)-5-(4-((4-oxopyridin-1(4H)-yl)methyl)phenyl)-2,7-naphthyridin-3-yl)cyclopropanecarboxamide]
Kd [1, 3]: ≤ 100 nM | IC50 [2, 4]: > 500 nM

SMILES: CNc1ncc(-c2nc3cc(C4CCN(C5COC5)CC4)ccc3o2)c2cc(NC(=O)C3CC3)ncc12 [Example 360, N-(8-(methylamino)-5-(5-(1-(oxetan-3-yl)piperidin-4-yl)benzo[d]oxazol-2-yl)-2,7-naphthyridin-3-yl)cyclopropanecarboxamide]
Kd [1, 7]: ≤ 100 nM | IC50 [2, 4]: ≤ 500 nM

SMILES: [2H]C([2H])([2H])Nc1ncc(-c2nc3ccccn3n2)c2cc(NC(=O)C3CC3F)ncc12 (racemic) [Example 564, N-(5-([1,2,4]triazolo[1,5-a]pyridin-2-yl)-8-((methyl-d3)amino)-2,7-naphthyridin-3-yl)-2-fluorocyclopropane-1-carboxamide]
Kd [1, 7]: ≤ 100 nM | IC50 [2, 4]: ≤ 500 nM

SMILES: CNc1ncc(-c2nc3ccc(N4CCOCC4)cn3n2)c2cc(NC(=O)C3(OC)CC3)ncc12 [Example 529, 1-methoxy-N-(8-(methylamino)-5-(6-morpholino-[1,2,4]triazolo[1,5-a]pyridin-2-yl)-2,7-naphthyridin-3-yl)cyclopropane-1-carboxamide]
Kd [1, 7]: ≤ 100 nM | IC50 [2, 4]: ≤ 500 nM

SMILES: CNc1ncc(-c2ccccc2)c2cc(NC(=O)C3(F)CC3)ncc12 [Example 161, 1-fluoro-N-(8-(methylamino)-5-phenyl-2,7-naphthyridin-3-yl)cyclopropane-1-carboxamide]
Kd [1, 5]: ≤ 100 nM | IC50 [2, 6]: > 500 nM

SMILES: CNc1ncc(-c2nc3cc(OC)ccc3o2)c2cc(Nc3cc(C)n(C)n3)ncc12 [Example 376, N^6-(1,5-dimethyl-1H-pyrazol-3-yl)-4-(5-methoxybenzo[d]oxazol-2-yl)-N^1-methyl-2,7-naphthyridine-1,6-diamine]
Kd [1, 7]: ≤ 100 nM | IC50 [2, 4]: ≤ 500 nM

SMILES: CNc1ncc(C#Cc2ccc(OCC(C)(C)O)cc2)c2cc(NC(=O)[C@H]3C[C@H]3C(F)F)ncc12 (single isomer, unassigned) [Example 757]
Kd [1, 3]: ≤ 100 nM | IC50 [2, 4]: ≤ 500 nM

SMILES: CNc1ncc(/C=C/c2ccc(N3CCOCC3)cc2)c2cc(NC(=O)C3CC3)ncc12 [Example 792, (E)-N-(8-(methylamino)-5-(4-morpholinostyryl)-2,7-naphthyridin-3-yl)cyclopropanecarboxamide]
Kd [1, 3]: ≤ 100 nM | IC50 [2, 4]: ≤ 500 nM

SMILES: CNc1ncc(-c2ccnn2C2CCCCO2)c2cc(NC(=O)C3CC3)ncc12 (stereo not shown) [Example 51, N-(8-(methylamino)-5-(1-(tetrahydro-2H-pyran-2-yl)-1H-pyrazol-5-yl)-2,7-naphthyridin-3-yl)cyclopropanecarboxamide]
Kd [1, 5]: 1000 to 10000 nM | IC50 [2, 6]: > 500 nM

The remaining lines, values ahead:

Kd [1, 3]: ≤ 100 nM | IC50 [2, 4]: ≤ 500 nM
SMILES: CNc1ncc(C#Cc2ccc3nc(C)n(C)c3c2)c2cc(NC(=O)C3CC3)ncc12 [Example 647, N-(5-((1,2-dimethyl-1H-benzo[d]imidazol-6-yl)ethynyl)-8-(methylamino)-2,7-naphthyridin-3-yl)cyclopropanecarboxamide]

Kd [1, 3]: ≤ 100 nM | IC50 [2, 4]: ≤ 500 nM
SMILES: CNc1ncc(C#Cc2ccn(C)n2)c2cc(NC(=O)C3CC3)ncc12 [Example 596, N-(5-((1-methyl-1H-pyrazol-3-yl)ethynyl)-8-(methylamino)-2,7-naphthyridin-3-yl)cyclopropanecarboxamide]

Kd [1, 3]: ≤ 100 nM | IC50 [2, 4]: ≤ 500 nM
SMILES: CNc1ncc(-c2nc3cc(OC)cc(F)c3o2)c2cc(NC(=O)C3CC3)ncc12 [Example 937, N-(5-(7-fluoro-5-methoxybenzo[d]oxazol-2-yl)-8-(methylamino)-2,7-naphthyridin-3-yl)cyclopropanecarboxamide]

Kd [1, 5]: ≤ 100 nM | IC50 [2, 6]: ≤ 500 nM
SMILES: CNc1ncc(-c2nc3c(F)cccc3o2)c2cc(NC(=O)C3CC3)ncc12 [Example 184, N-(5-(4-fluorobenzo[d]oxazol-2-yl)-8-(methylamino)-2,7-naphthyridin-3-yl)cyclopropanecarboxamide]

Kd [1, 3]: ≤ 100 nM | IC50 ([2]; IFNa-stimulated pSTAT5 (Tyr694/699), read-out: Cellular_THP1_IFNa-pSTATS_TYK2): ≤ 500 nM
SMILES: CNc1ncc(C#Cc2ccc(-n3ncccc3=O)cc2)c2cc(NC(=O)C3CC3)ncc12 [Example 998, N-(8-(methylamino)-5-((4-(6-oxopyridazin-1(6H)-yl)phenyl)ethynyl)-2,7-naphthyridin-3-yl)cyclopropanecarboxamide]

Kd [1, 3]: ≤ 100 nM | IC50 [2, 4]: ≤ 500 nM
SMILES: CNc1ncc(C#Cc2ccc3ncn(C4CC4)c3c2)c2cc(NC(=O)C3CC3)ncc12 [Example 625, N-(5-((1-cyclopropyl-1H-benzo[d]imidazol-6-yl)ethynyl)-8-(methylamino)-2,7-naphthyridin-3-yl)cyclopropanecarboxamide]

Kd [1, 5]: ≤ 100 nM | IC50 [2, 6]: > 500 nM
SMILES: CNc1ncc(C#CC(=O)C2CC2)c2cc(NC(=O)C3CC3)ncc12 [Example 127, N-(5-(3-cyclopropyl-3-oxoprop-1-yn-1-yl)-8-(methylamino)-2,7-naphthyridin-3-yl)cyclopropanecarboxamide]

Kd [1, 3]: ≤ 100 nM | IC50 [2, 4]: ≤ 500 nM
SMILES: CNc1ncc(C#Cc2cc3c(cc2F)OCCO3)c2cc(NC(=O)C3CC3)ncc12 [Example 973, N-[5-[2-(6-fluoro-2,3-dihydro-1,4-benzodioxin-7-yl)ethynyl]-8-(methylamino)-2,7-naphthyridin-3-yl]cyclopropanecarboxamide]

Kd [1, 3]: ≤ 100 nM | IC50 [2, 4]: ≤ 500 nM
SMILES: CNc1ncc(C#Cc2ccc(-n3ccnn3)cn2)c2cc(NC(=O)C3CC3)ncc12 [Example 952, N-(5-((5-(1H-1,2,3-triazol-1-yl)pyridin-2-yl)ethynyl)-8-(methylamino)-2,7-naphthyridin-3-yl)cyclopropanecarboxamide]
